US10441555B2, “Pharmaceutical composition” (Olatec Therapeutics LLC, priority 2012, dated 2019)
Structures can show the parent of a compound that is named as a salt.

Key:
[1] = tested on: arachidonic acid-induced ear swelling; experiment: topical arachidonic acid-induced ear swelling model in mice; assay type: in vivo; settings: male ICR mice, topical application 30 min before and 15 min after arachidonic acid; measured at 60 minutes; test compounds 375 mM, indomethacin 14 mM; n=10
Experimental: The test compounds, indomethacin (positive control), and vehicle were evaluated for anti-inflammatory activity in a topical arachidonic acid-induced ear swelling model in mice. Male ICR mice weighing 22±2 g were used and randomly divided; each group had 10 mice. Arachidonic Acid (0.5 mg in 20 μl of acetone:ethanol/1:1) was applied topically to the anterior and posterior surfaces of the right ear of each mice. Test substances and vehicle, as listed in Table 1 were similarly applied 30 min before and 15 min after arachidonic acid application. The thickness of the right ear and the left ear was measured and the difference calculated as an indication of the inflammation in the right ear. Ear swelling was measured by a Dyer model micrometer gauge at 60 and 90 minutes after arachidonic acid application as an index of inflammation. Percent inhibition was calculated according to the formula: Ic−It/Ic×100, where Ic and It refers to increase of ear thickness (mm) in control and treated mice, respectively. ANOVA and Dunnett's test were employed to ascertain significant difference between vehicle control and treated groups. Significance is set at P<0.05 level.

| melting point | SMILES | % Inhibition of ear swelling [1] |
| --- | --- | --- |
| – | CS(=O)(=O)CCC(N)=O [3-(methylsulfonyl)propionamide] | 30% |
| 146.9 to 147.4 °C | CS(=O)(=O)CCCN (as salt: hydrochloride) [3-(methylsulfonyl)propylamine] | – |
| – | COc1ccc2c(c1)c(CC(=O)O)c(C)n2C(=O)c1ccc(Cl)cc1 [Indomethacin, indomethacin, reference compound] | 54% |
| – | CS(=O)(=O)CCCN [3-(methylsulfonyl)propylamine] | 42% |
